Measured values taken from patent US8124111B2, “Immunomodulation by altering sphingosine 1-phosphate lyase (SPL) activity” (Children's Hospital & Research Center at Oakland, priority 2005, dated 2012).

Legend:
[1] = target: T1, SPL (Mus musculus, UniProt Q8R0X7); assay: SPL activity in thymic tissue after FTY720 administration in vivo; set-up: species or system FVB mice; settings: for SPL enzyme inhibition in tissue homogenates: animals treated with FTY720 for 24 hours
T1 construct: from tissue; host or cells: thymus of FVB mice
T1 sequence (Q8R0X7 1-568): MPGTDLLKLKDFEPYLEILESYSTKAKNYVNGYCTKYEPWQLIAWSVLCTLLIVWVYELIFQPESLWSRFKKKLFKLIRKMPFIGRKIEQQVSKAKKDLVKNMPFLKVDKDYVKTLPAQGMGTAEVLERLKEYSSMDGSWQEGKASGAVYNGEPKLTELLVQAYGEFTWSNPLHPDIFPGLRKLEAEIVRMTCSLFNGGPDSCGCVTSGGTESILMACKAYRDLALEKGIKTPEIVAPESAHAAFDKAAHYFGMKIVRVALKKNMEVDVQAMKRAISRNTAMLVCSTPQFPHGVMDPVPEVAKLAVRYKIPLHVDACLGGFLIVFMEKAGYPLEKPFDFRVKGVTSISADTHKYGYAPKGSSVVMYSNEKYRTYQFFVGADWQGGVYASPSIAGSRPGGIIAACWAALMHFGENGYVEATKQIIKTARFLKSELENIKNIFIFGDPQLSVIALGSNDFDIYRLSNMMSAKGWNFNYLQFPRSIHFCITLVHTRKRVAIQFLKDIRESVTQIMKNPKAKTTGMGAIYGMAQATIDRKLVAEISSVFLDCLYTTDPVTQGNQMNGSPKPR
Protocol: One mg/kg FTY720 was administered by peritoneal injection to FVB mice at time zero. Mice were euthanized at the indicated times, and SPL activity in thymic tissue was determined.
Drug treatments and leukocyte/lymphocyte counts: Four-week old FVB or C3H mice were obtained from Charles River Laboratories (Wilmington, Mass.). Animals were maintained in a pathogen-free facility in microisolator cages. Mice were anaesthetized with isoflurane inhalation, and a single dose of FTY720 (at 1 or 3 mg/kg) or GT11 (at 1, 10 or 100 mg/kg) in sterile water was injected intraperitoneally at time zero. Blood counts were determined by Coulter counter (Coulter Instruments, Hialeah, Fla.) and by manual differential counting. Mice were euthanized by CO2 inhalation at various time points post-injection, followed by tissue harvest. All animal studies were performed in accordance with approved CHORI IACUC protocols.
(§1) SPL enzyme assay: Tissues were homogenized by sonication in 9 volumes of ice-cold homogenization buffer (5 mM MOPS pH 7.5, 1 mM DTT, 1 mM EDTA, 0.25 M sucrose, and 5 micrograms/ml each chymostatin, leupeptin, pepstatin A and antipain). SPL assays were conducted using 50 micrograms protein per assay and radioactive [4,5 ^3H]DHS1P substrate, as described previously (Reiss et al., (2004) J Biol Chem 279, 1281-1290). For in vitro FTY720 and FTY720-P experiments, drug was incubated with whole cell extracts prepared from HEK293 cells infected with an adenoviral vector expressing human SPL. These extracts contained approximately 200 picomoles/mg protein/minute SPL activity. Drug was incubated with extracts for 30 minutes, followed by addition of extracts to reaction buffer and substrate to initiate the reaction.
Inhibition of SPL by FTY720 in vivo—The effect on SPL enzyme activity of FTY720 administration was tested. Four-week old female FVB mice were given 1 mg/kg FTY720 by intraperitoneal injection, and tissue SPL activity in thymus was assessed over time. […] SPL inhibition occurred concomitantly with lymphopenia, and was consistent with the timing of lymphopenia reported previously (Chiba et al., (1998) J Immunol 160, 5037-5044) (Table 1).
To address whether the inhibition of SPL activity in homogenates of tissues isolated from FTY720 treated animals was reversible, tissue SPL activity was measured in the presence of increasing amounts of non-radiolabeled DHS1P substrate.

[2] = target: T2, SPL (Homo sapiens, UniProt O95470); assay: Inhibition of SPL activity in vitro (whole cell extracts of HEK293 cells with human SPL adenoviral construct); type: biochemical; set-up: expressed in transfected cells; host or cells: HEK293 infected with adenoviral vector
T2 sequence (O95470 1-568): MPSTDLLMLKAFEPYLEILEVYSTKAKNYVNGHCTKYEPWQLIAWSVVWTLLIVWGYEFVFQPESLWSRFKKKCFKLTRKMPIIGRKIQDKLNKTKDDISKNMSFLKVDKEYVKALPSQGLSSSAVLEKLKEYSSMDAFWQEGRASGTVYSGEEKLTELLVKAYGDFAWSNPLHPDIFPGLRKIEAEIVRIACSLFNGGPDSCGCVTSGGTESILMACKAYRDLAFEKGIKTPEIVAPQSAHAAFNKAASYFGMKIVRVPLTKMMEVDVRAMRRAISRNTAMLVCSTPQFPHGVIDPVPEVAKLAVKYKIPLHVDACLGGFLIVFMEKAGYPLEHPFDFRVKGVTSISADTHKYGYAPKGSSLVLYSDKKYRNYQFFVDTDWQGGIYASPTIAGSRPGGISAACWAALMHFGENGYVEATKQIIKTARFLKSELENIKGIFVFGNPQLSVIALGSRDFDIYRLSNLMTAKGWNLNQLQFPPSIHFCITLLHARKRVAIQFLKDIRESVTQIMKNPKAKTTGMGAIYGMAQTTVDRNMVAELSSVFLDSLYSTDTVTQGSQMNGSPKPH
Protocol: Various concentrations of FTY720 or its phosphorylated derivative (FTY720P) were incubated for 30 minutes on ice with whole cell extracts containing high SPL activity by virtue of a human SPL adenoviral expression construct. SPL activity was determined. (A) FTY720; (B) FTY720-P.
as §1
Although treatment with FTY720 was associated with low (nanomolar) circulating drug levels, it was possible that local concentrations within cells and subcellular compartments may have been considerably higher, since FTY720 has been reported to be actively transported into cells by the actions of drug transporters that recognize long chain bases (Honig et al., (2003) J Clin Invest 111, 627-637).

[3] = 1 mg/kg FTY720 intraperitoneal, FVB mice, thymus
[4] = 30 minutes incubation with extracts

earliest time at which inhibition of SPL was noted [1, 3]: 12 h
time by which SPL inhibition began to reverse [1, 3]: ≤ 48 h
SPL enzyme inhibition in tissue homogenates ([1]; 10 nmol substrate (standard assay conditions)): 21%
SPL enzyme inhibition in tissue homogenates ([1]; 40 nmol unlabeled substrate): 25%
SPL enzyme inhibition in tissue homogenates ([1]; 2-fold increase in unlabeled DHS1P substrate): 14%
inhibition at 1 mg/kg ([1]; mouse, ip, 1 mg/kg FTY720 intraperitoneal, FVB mice, thymus, at 36 hours, read-out: peak inhibition of SPL activity): ~40%
dose dependence of SPL inhibition in vitro [2]: dose-dependent
concentration of maximal effect on SPL activity in vitro [2, 4]: 30 µM
lowest concentration with effect on SPL activity in vitro [2, 4]: 300 nM
Structure (SMILES): CCCCCCCCc1ccc(CCC(N)(CO)CO)cc1 [FTY720]
